Experimental data: US20240294504A1, “COMPOUNDS, COMPOSITIONS, AND METHODS FOR INDUCING ANTIMICROBIAL INTRACELLULAR ACTIVITY AND FOR PREVENTING AND TREATING MICROBIAL INFECTIONS” (The Broad Institute, Inc., priority 2021, published 2024)
Several values for one entry are separate records, joined by “and”; a condition that tells them apart may be missing. Identical values can stand only once. Entries after “also recorded” stand apart in the source; their conditions may differ. Like-named read-outs stand apart in the source and are kept apart here.

Tests used:
[1] = system: intracellular K. pneumoniae; assay: Intracellular survival of K. pneumoniae (RB120) in bladder epithelial cells (gentamicin protection assay, CFUs from plated cell lysates); assay type: cell-based, Klebsiella pneumoniae; conditions: for EC50: 24 hours of treatment, bladder epithelial cells, read-out: EC50 of dose-dependent killing / antimicrobial activity against intracellular K. pneumoniae
[2] = system: intracellular carbapenem-tolerant K. pneumoniae; conditions: primary screen 5 μM, retest 2.5 to 20 μM
Procedure: Bladder epithelial cells were infected with lux-expressing K. pneumoniae and incubated with the carbapenem antibiotic meropenem (see FIG. 1A), after killing extracellular bacteria with a high dose of gentamicin shortly after the infection. Intracellular survival was assessed by determining the luminescence intensity of intracellular bacteria that had been liberated by host cell lysis and outgrown in LB medium for 7 hours. […] Mean and SD of Z-factors of n=32 plates from 4 batches (independent outgrowth events) shown. […] Partial hits and hits involving known antibiotics were excluded. Hits from the primary screen were retested in a secondary screen at different concentration.

SARS-COV-2 = SARS-COV-2 infection of veroE6 kidney epithelial cells (immunofluorescence microscopy); assay type: cell-based
tumor growth = conditions: mouse, in vivo; cited from earlier work
cancer cells = conditions: cited from earlier work
[3] = system: extracellular K. pneumoniae; assay type: cell-based, Klebsiella pneumoniae
interferon beta response = assay: Interferon beta response in infected bladder epithelial cells; assay type: cell-based, human; set-up: dose or concentration left out as unconfirmed; conditions: 24 hours (24 to 48 hours post infection)
Procedure: FIG. 7. […] Infected cells were treated for 24 hours with […] (S)-crizotinib, AY9944 or DMSO control from 24 to 48 hours post infection.

[4] = system: uropathogenic Escherichia coli (UPEC, UTI89); assay: Intracellular survival of UPEC in bladder epithelial cells; assay type: cell-based; conditions: 10 μM, 4 hours
[5] = system: intracellular K. pneumoniae; assay: Intracellular survival of K. pneumoniae in human lung epithelial cell line A549; assay type: cell-based, Klebsiella pneumoniae; conditions: 10 μM, over 2 hours
[6] = system: Pseudomonas aeruginosa (PAO1); assay: Intracellular survival of P. aeruginosa in bladder epithelial cells; assay type: cell-based; conditions: 10 μM, 24 hours
[7] = system: K. pneumoniae ST258 expressing mNeon (UCI_38DwbaP_mNeon); assay: Confocal microscopy of fluorescent Klebsiella-containing vacuoles (LAMP1) in bladder epithelial cells; assay type: cell-based, Klebsiella pneumoniae; conditions: 10 μM, 24 hours (24 to 48 hours post infection)
[8] = system: intracellular Salmonella Typhimurium; assay: Intracellular survival of Salmonella Typhimurium in host cells; assay type: cell-based
[9] = system: post-lanosterol cholesterol biosynthesis pathway; assay: LC-MS based lipidomics of sterol intermediates in host cells; assay type: cell-based, human; conditions: 10 μM
Procedure: FIGS. 17A-17C. LC-MS based lipidomics evaluation of effect of other available post-lanosterol cholesterol biosynthesis inhibitors on infection. (FIG. 17A) Post-lanosterol pathway. (FIG. 17B) Effect of 10 μM AY9944 or 10 μM (S)-crizotinib after 2 hours of treatment (FIG. 17C) or after 24 hours of treatment.

Gram-positive bacteria = conditions: cited from earlier work
[10] = 10 μM, after 24 hours of treatment
[11] = Klebsiella pneumoniae, Epithelial cell
[12] = 24 h treatment of infected bladder cells

Structure (SMILES): C[C@@H](Oc1cc(-c2cnn(C3CCNCC3)c2)cnc1N)c1c(Cl)ccc(F)c1Cl [(R)-crizotinib]
- killing % of the intracellular K. pneumoniae population [1, 10]: 99%
- EC50 [1, 11]: 1100 nM
- host cell cytotoxicity against bladder epithelial cells (bladder epithelial cells): displayed host cell cytotoxicity in a dose-dependent manner
- outcome in high-throughput screen [2]: top hits

Structure (SMILES): C[C@H](Oc1cc(-c2cnn(C3CCNCC3)c2)cnc1N)c1c(Cl)ccc(F)c1Cl [(S)-crizotinib]
- antiviral activity in epithelial cells infected with SARS-COV-2 (SARS-COV-2; veroE6, MOI 0.1, 24 h treatment): induced antiviral activity in epithelial cells infected with SARS-COV-2 in a dose dependent manner
- killing % of the intracellular population within 15 minutes ([1]; 10 μM, 15 minutes): 82% and 80%
- % of the intracellular population killed after 2 hours of treatment ([1]; 10 μM, 2 hours): 99%
- effect of removal of gentamicin from the culture medium on antibacterial activity ([1]; 10 μM, 2 hours, presence vs absence of gentamicin): had no impact on the potent antibacterial activity
- killing % of the intracellular K. pneumoniae population [1, 10]: 99%
- activity against intracellular ciprofloxacin-tolerant K. pneumoniae persisters ([1]; 4 mg/ml ciprofloxacin for 14 hours, then (S)-crizotinib for 6 hours in the presence of ciprofloxacin): dose-dependent antibacterial activity
- increase of extracellular bacteria (exocytosis of Klebsiella-containing compartments) ([1]; 2 hours, absence of gentamicin, supernatants): did not result in a significant increase of extracellular bacteria
- EC50 [1]: 1700 nM
- host cell cytotoxicity against bladder epithelial cells (bladder epithelial cells): did not display cytotoxicity
- tumor growth in mice (tumor growth): suppress tumor growth in mice
- inhibits colony formation of cancer cells (cancer cells): low micromolar concentrations
- antibacterial activity against K. pneumoniae grown in axenic medium [3]: did not display antibacterial activity
- interferon beta response in bladder epithelial cells infected with K. pneumoniae (interferon beta response): do not induce an interferon beta response
- antibacterial activity in bladder epithelial cells infected with UPEC [4]: antibacterial activity
- antiinfective activity against intracellular K. pneumoniae in A549 lung epithelial cells [5]: rapid antiinfective activity
- antibacterial activity in bladder epithelial cells infected with Pseudomonas aeruginosa [6]: antibacterial activity
- reduction in the median fluorescence intensity of mNeon-expressing Klebsiella in LAMP1 containing compartments [7]: 33%
- reduction of detected Klebsiella containing compartments [7]: 63%
- outcome in high-throughput screen [2]: top hits
- antibacterial activity in cells infected with Salmonella Typhimurium ([8]; HeLa epithelial cells, 10 μM, 20 hours (4 to 24 hours post infection)): antibacterial activity

Structure (SMILES): Clc1ccccc1CNCC1CCC(CNCc2ccccc2Cl)CC1 (centres unmarked) [AY 9944]
- EC50 (SARS-COV-2; Severe acute respiratory syndrome coronavirus 2, Vero C1008, read-out: EC50 of antiviral activity in SARS-COV-2 infections): 1000 nM
- killed % of the intracellular population in 60 minutes ([1]; 10 uM, 60 minutes): approx. 80%
- EC50 [1, 11]: 940 nM
- host cell cytotoxicity against bladder epithelial cells (bladder epithelial cells; [12]): no host cell toxicity
- antibacterial activity against K. pneumoniae grown in axenic medium [3]: no host cell toxicity or antimicrobial activity in axenic medium
- interferon beta response in bladder epithelial cells infected with K. pneumoniae (interferon beta response): do not induce an interferon beta response
- FF-MAS, fold increased ([9]; 2 hour treatment): 4.2 fold
- dehydrodesmosterol, fold increased ([9]; 2 hour treatment): 1.2 fold
- lanosterol, fold increased ([9]; 2 hour treatment): 1.2 fold
- FF-MAS, fold increased ([9]; 24 hour treatment): 11.9 fold
- dehydrodesmosterol, fold increased ([9]; 24 hour treatment): 2.9 fold
- lanosterol, fold increased ([9]; 24 hour treatment): 3 fold
- outcome in high-throughput screen [2]: hit

Structure (SMILES): CNc1cc(-c2cccc(Cl)c2Cl)nc(N)n1 [TH287]
- intracellular antibacterial activity after 4 hours of treatment ([1]; 10 μM): did not display intracellular antibacterial activity
- intracellular antibacterial activity after 24 hours of treatment ([1]; 10 μM): modest antibacterial activity
- host cell cytotoxicity against bladder epithelial cells (bladder epithelial cells; [12]): dose dependent toxicity

Structure (SMILES): Nc1nc(NC2CC2)cc(-c2cccc(Cl)c2Cl)n1 [TH588]
- intracellular antibacterial activity after 4 hours of treatment ([1]; 10 μM): did not display intracellular antibacterial activity; also recorded: did not induce intracellular antibacterial activity
- intracellular antibacterial activity after 24 hours of treatment ([1]; 10 μM): modest antibacterial activity
- host cell cytotoxicity against bladder epithelial cells (bladder epithelial cells; [12]): dose dependent toxicity

Structure (SMILES): C[C@@H](Oc1cc(-c2cnn(C3CCNCC3)c2)cnc1N)c1c(Cl)ccc(F)c1Cl [crizotinib]
- concentration for growth inhibition of Gram-positive bacteria (Gram-positive bacteria): > 20 µM

Structure (SMILES): CC(C)Cn1cnc2c(N)nc3ccccc3c21 [imiquimod]
- anti-infective / antimicrobial activity of TLR7 agonist ([1]; after 24 hours of treatment): moderate anti-infective activity; also recorded: Modest antimicrobial activity

Structure (SMILES): C[C@@H](O)[C@H]1C(=O)N2C(C(=O)O)=C(S[C@@H]3CN[C@H](C(=O)N(C)C)C3)[C@H](C)[C@H]12 [meropenem]
- impact on the viability of intracellular K. pneumoniae ([1]; meropenem 10 μg/ml (150 fold of MIC), 20 hours): no impact; also recorded: ineffective
- killed % of intracellular Salmonella Typhimurium population ([8]; meropenem 10 μg/ml, after 20 hours of treatment): 87%
